PMC11012799 (Molecules, 2024)
In brackets after ≈: the same amount, converted by molar mass. Counter-ions that a name gives are not always drawn. Like-named read-outs stand apart in the source and are kept apart here.

Legend:
[1] = tested on: Escherichia coli NCTC 8196; assay: MIC, two-fold microdilution (EUCAST), E. coli reference strain; assay type: cell-based; conditions: read-out: MIC (µM) Escherichia coli NCTC 8196
From the text: (§1) A panel of reference bacteria, including Escherichia coli NCTC 8196, Staphylococcus aureus ATCC 6538, Klebsiella pneumoniae ATCC 13883, and Pseudomonas aeruginosa NCTC 6749, was used to assess the antibacterial activity of the nine tested aziridine phosphines (1–4) and aziridine phosphine oxides (5–9). The two-fold microdilution method, following EUCAST guidelines, was used to determine a minimal inhibitory concentration (MIC) of each compound, as presented in Table S1.
(§2) Antibacterial activity: The in vitro antibacterial activity of nine tested aziridine phosphines (1–4) and aziridine phosphine oxides (5–9) was evaluated against reference bacterial strains (E. coli NCTC 8196, S. aureus ATCC 6538, K. pneumoniae ATCC 13883, P. aeruginosa NCTC 6749) and 12 S. aureus clinical isolates, including two methicillin-resistant isolates (MRSA, D15 and D17) obtained from infected patients hospitalized at the Oncological Hospital in Lodz (Poland). All strains were kept frozen at −80 °C in Tryptic Soy Broth with 15% glycerol. The minimal inhibitory concentration (MIC) is defined as the lowest concentration of the compound that prevents visible growth of bacteria using the microdilution method followed the EUCAST guidelines. Each compound was added to 96-well microplates in two-fold dilutions at concentrations from 3.125 to 100 μM in Mueller–Hinton broth. […] Bacterial culture was added into wells at a density of 5 × 10^5 CFU mL^−1, and plates were incubated at 37 °C for 18 h. As a positive control, an untreated bacterial culture was used, and a clear culture medium served as a negative control. The optical density at OD600 was measured using the SpectraMax i3 Multi-Mode Platform (Molecular Devices, San Jose, CA, USA). Ciprofloxacin hydrochloride (CIP, Sigma-Aldrich, Darmstadt, Germany) was used as a reference antimicrobial drug.

[2] = tested on: Pseudomonas aeruginosa NCTC 6749; assay: MIC, two-fold microdilution (EUCAST), P. aeruginosa reference strain; assay type: cell-based; conditions: read-out: MIC (µM) Pseudomonas aeruginosa NCTC 6749
From the text: as §1, §2

[3] = tested on: Staphylococcus aureus ATCC 6538; assay: MIC, two-fold microdilution (EUCAST), S. aureus reference strain; assay type: cell-based; conditions: read-out: MIC (µM) Staphylococcus aureus ATCC 6538
From the text: as §1, §2

[4] = tested on: Klebsiella pneumoniae ATCC 13883; assay: MIC, two-fold microdilution (EUCAST), K. pneumoniae reference strain; assay type: cell-based; conditions: read-out: MIC (µM) Klebsiella pneumoniae ATCC 13883
From the text: as §1, §2

Ishikawa cells = assay: cells; assay type: cell-based, human; conditions: for IC50: read-out: IC50 (µM) Ishikawa; for selectivity index (SI) Ishikawa: efficacy against Ishikawa versus normal fibroblasts L929, SI > 1.0 = greater efficacy against cancer cells
Protocol: (§3) Considering our previous research and the literature reports on the antitumor activity of aziridine derivatives, aziridine phosphines (1–4) and aziridine phosphine oxides (5–9) were tested to investigate their potential anticancer activity. The in vitro effects on cell viability were assessed using the 3-(4,5-dimethylthiazol-2-yl)-2,5-diphenyltetrazolium bromide (MTT) assay on non-tumorigenic murine fibroblasts (L929) as well as two cancer cell lines: human cervical epithelioid carcinoma (HeLa) cells and endometrial adenocarcinoma (Ishikawa) cells.
(§4) Cell viability inhibition: The in vitro effects on cell viability were determined using the 3-(4,5-dimethylthiazol-2-yl)-2,5-diphenyltetrazolium bromide (MTT) assay on non-tumorigenic murine fibroblasts L929 (ATTC®—CCL-1) as well as two cancer cell lines: human cervical epithelioid carcinoma HeLa cells (ATTC®—CCL-2™) and endometrial adenocarcinoma Ishikawa cells (ECACC 99040201). Cells were cultured on 96-well microplates at a density of 1 × 10^4 cells/well following the international in Dulbecco’s Modified Eagle’s Medium (DMEM, Biowest) supplemented with 10% fetal bovine serum (FBS, Biowest, Nuaillé, France), 100 U/mL of penicillin, and 100 μg/mL of streptomycin (Biowest, Nuaillé, France). After overnight incubation at 37 °C and 5% CO2, the growth medium was removed and 100 μL of fresh media with two-fold dilutions of the tested compounds at concentrations of 3.125–100 μM were added. […] Untreated cells in medium were used as a positive control, while a clear culture medium served as a negative control.

HeLa cells = assay: cells; assay type: cell-based, human; conditions: for IC50: read-out: IC50 (µM) HeLa; for selectivity index (SI) HeLa: efficacy against HeLa versus normal fibroblasts L929, SI > 1.0 = greater efficacy against cancer cells
Protocol: as §3, §4

L929 cells = assay: cells; assay type: cell-based, murine; conditions: read-out: IC50 (µM) L929
Protocol: as §3, §4

[5] = tested on: clinical S. aureus strains; assay: MIC, microdilution, 12 clinical S. aureus strains; assay type: cell-based, Staphylococcus aureus; conditions: panel of 12 clinical isolates (naso-pharynx, ulcers/furuncles, bones), highest tested concentration 100 µM
From the text: as §1, §2

[6] = MTT, 24 h treatment, IC50 ± SD, three independent experiments
[7] = Escherichia coli, NCTC8196, 18 h
[8] = Pseudomonas aeruginosa, NCTC6749, 18 h
[9] = Staphylococcus aureus, ATCC6538, 18 h
[10] = Klebsiella pneumoniae, ATCC13883, 18 h
[11] = tested range 3.125–100 µM, 37 °C, 18 h

Compound | MIC [1, 7] | MIC [2, 8] | MIC [3, 9] | IC50 (Ishikawa cells; Homo sapiens, Ishikawa, 24 h) | selectivity index (SI) Ishikawa (Ishikawa cells) | IC50 (HeLa cells; Homo sapiens, 24 h) | selectivity index (SI) HeLa (HeLa cells) | IC50 (L929 cells; Mus musculus, L929, 24 h) | MIC [4, 10] | other results
O=C(O)c1cn(C2CC2)c2cc(N3CCNCC3)c(F)cc2c1=O [CIP, Ciprofloxacin hydrochloride, reference compound] | – | – | – | – | – | – | – | – | – | MIC ([1]; Escherichia coli, NCTC8196, tested range 3.125–100 µM, 37 °C, 18 h): 0.04 µM; MIC ([2]; Pseudomonas aeruginosa, NCTC6749, tested range 3.125–100 µM, 37 °C, 18 h): 2.5 µM; MIC ([3]; Staphylococcus aureus, ATCC6538, tested range 3.125–100 µM, 37 °C, 18 h): 1.6 µM; MIC ([4]; Klebsiella pneumoniae, ATCC13883, tested range 3.125–100 µM, 37 °C, 18 h): 0.2 µM
N.N.[Cl][Pt][Cl] [CisPt, cisplatin, reference compound] | – | – | – | – | – | – | – | – | – | IC50 (Ishikawa cells; [6]): 17.3 ± 5.2 µM; IC50 (HeLa cells; [6]): 10.4 ± 4.4 µM; IC50 (L929 cells; [6]): 26.2 ± 7.5 µM
CC(C)[C@@H]1CN1c1ccccc1P(c1ccccc1)c1ccccc1 [Compound 1] | > 100 µM | > 100 µM | 50 µM (≈ 17.3 µg/mL) | 13.9 ± 7.1 µM | 4.9 | > 100 µM | < 1 | 68.1 ± 11.2 µM | > 100 µM | –
CC(C)[C@H]1CN1c1ccccc1P(c1ccccc1)c1ccccc1 [Compound 2] | > 100 µM | > 100 µM | 50 µM (≈ 17.3 µg/mL) | 14.8 ± 6.5 µM | > 6.7 | > 100 µM | – | > 100 µM | > 100 µM | –
CC(C)C[C@H]1CN1c1ccccc1P(c1ccccc1)c1ccccc1 [Compound 3] | > 100 µM | > 100 µM | 50 µM (≈ 18 µg/mL) | > 100 µM | – | 30.3 ± 4.5 µM | > 3.3 | > 100 µM | > 100 µM | –
c1ccc([C@H]2CN2c2ccccc2P(c2ccccc2)c2ccccc2)cc1 [Compound 4] | > 100 µM | > 100 µM | 50 µM (≈ 19 µg/mL) | > 100 µM | < 1 | 39.2 ± 6.7 µM | < 1 | 22 ± 3.4 µM | > 100 µM | –
CC(C)[C@H]1CN1c1ccccc1P(=O)(c1ccccc1)c1ccccc1 [Compound 6] | > 100 µM | > 100 µM | 50 µM (≈ 18.1 µg/mL) | 16.6 ± 2.5 µM | < 1 | 40.7 ± 11.1 µM | < 1 | 13.7 ± 3.1 µM | > 100 µM | MIC ([5]; Staphylococcus aureus): 100 µM (≈ 36.1 µg/mL); MIC [5]: 100 µM (≈ 36.1 µg/mL)
O=P(c1ccccc1)(c1ccccc1)c1ccccc1N1C[C@@H]1c1ccccc1 [Compound 8] | > 100 µM | > 100 µM | 50 µM (≈ 19.8 µg/mL) | 23.4 ± 7.6 µM | < 1 | 19.6 ± 3.2 µM | < 1 | 17 ± 4.4 µM | > 100 µM | –
(2S)-2-diphenylphosphinoyl-2-phenylaziridine [Compound 9] | – | – | – | – | – | – | – | – | – | MIC [1, 11]: > 100 µM; MIC [2, 11]: > 100 µM; MIC [3, 11]: 50 µM; IC50 (Ishikawa cells; [6]): > 100 µM; IC50 (HeLa cells; [6]): 48.8 ± 12.3 µM; IC50 (L929 cells; [6]): > 100 µM; MIC [4, 11]: > 100 µM
